Peptide text beside a SMILES is read from it.
Key:
recombinant human ACE2 = molecular target: T1, recombinant human ACE2 (Homo sapiens, UniProt Q9BYF1); test: SPR binding to immobilized ACE2; conditions: SPR Biacore T200, CM5 chip, amine coupling, 25°C, 30 µl/min, 1×PBS, 0.05% Tween 20, 5% dimethyl sulfoxide, pH 7.4; steady state affinity model; read-out: equilibrium dissociation constant (K D)
T1 construct: purchased Novoprotein, Beijing, China
Procedure: (§1) Each target was immobilized onto flow cells in a CM5 sensor chip (GE Healthcare) via the amine-coupling method. Briefly, ACE2 and NRP1 were diluted in 10 mM pH 4.5 acetate to 20 μg/ml. Then, the protein solutions were injected individually on the carboxyl-modified sensor surface to form amine bonds. Both ACE2 and NRP1 immobilized levels were approximately 10,000 RU. Binding analyses were carried out at 25°C and a flow rate of 30 µl/min. Tuftsin diluted in running buffer (1×PBS, 0.05% Tween 20 and 5% dimethyl sulfoxide, pH 7.4) was run over each target at gradient concentrations. An empty flow cell without any immobilized protein was used as a deducted reference. The binding curves were analysed using the steady state affinity model supplied with Biacore Evaluation Software (GE Healthcare).
(§2) The interactions of tuftsin with ACE2 and NRP1 were further evaluated by real-time biomolecular interaction analysis with SPR. The steady state affinity of the binding reaction were determined by injecting different concentrations of tuftsin over recombinant human ACE2 immobilized on one half of the chip surface, and over recombinant human NRP1 immobilized on another half of the chip surface. […] The K D fitting curve of tuftsin with NRP1 is gradually stable when the concentrations of tuftsin increased gradually, conforming to the characteristic of specific binding (Figure 3B).

recombinant human NRP1 = recombinant human NRP1 (Homo sapiens, UniProt O14786); test: SPR binding to immobilized NRP1; conditions: SPR Biacore T200, CM5 chip, amine coupling, 25°C, 30 µl/min, 1×PBS, 0.05% Tween 20, 5% dimethyl sulfoxide, pH 7.4; steady state affinity model; read-out: K D value
Procedure: as §1, §2

[1] = in vitro and in vivo; ref Amoscato et al., 1983; Fridkin and Najjar, 1989; Siemion and Kluczyk, 1999; cited from earlier work
Description: Along with ACE2, neuropilin 1 (NRP1) is another important host factor for SARS-CoV-2 infection ([Daly et al., 2020]). It has been reported that NRP1 facilitates the entry of SARS-CoV-2 into cells in the presence of ACE2 ([Cantuti-Castelvetri et al., 2020]). […] Tuftsin, a natural phagocytosis-stimulating peptide, was found by [Najjar and Nishioka (1970)]. Tuftsin is released from the Fc fragment of IgG by enzyme cleavage of an endocarboxy-peptidase in the spleen and a leukokin ...

T1 sequence (Q9BYF1 18-805): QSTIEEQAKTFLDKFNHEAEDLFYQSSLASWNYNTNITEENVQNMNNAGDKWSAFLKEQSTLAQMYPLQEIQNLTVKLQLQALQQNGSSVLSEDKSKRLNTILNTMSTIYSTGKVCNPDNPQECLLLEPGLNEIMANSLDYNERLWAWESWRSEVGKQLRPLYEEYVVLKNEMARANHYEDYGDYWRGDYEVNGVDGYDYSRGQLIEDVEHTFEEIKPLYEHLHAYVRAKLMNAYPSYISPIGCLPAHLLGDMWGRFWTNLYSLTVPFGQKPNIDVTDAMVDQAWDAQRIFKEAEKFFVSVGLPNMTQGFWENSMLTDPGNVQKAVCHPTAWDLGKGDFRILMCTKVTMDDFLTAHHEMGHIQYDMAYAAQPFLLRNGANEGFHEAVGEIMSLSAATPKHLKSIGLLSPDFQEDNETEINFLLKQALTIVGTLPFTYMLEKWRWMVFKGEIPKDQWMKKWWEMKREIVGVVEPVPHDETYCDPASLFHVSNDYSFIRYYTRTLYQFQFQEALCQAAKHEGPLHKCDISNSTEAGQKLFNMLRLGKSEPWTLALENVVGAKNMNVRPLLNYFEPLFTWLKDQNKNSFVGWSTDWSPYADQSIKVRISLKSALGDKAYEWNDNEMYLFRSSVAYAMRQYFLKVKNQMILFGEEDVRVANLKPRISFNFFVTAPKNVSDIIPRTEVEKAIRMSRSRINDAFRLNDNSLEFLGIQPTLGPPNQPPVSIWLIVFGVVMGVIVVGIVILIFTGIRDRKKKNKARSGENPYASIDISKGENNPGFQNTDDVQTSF
Chain of recombinant human NRP1 (O14786 22-923): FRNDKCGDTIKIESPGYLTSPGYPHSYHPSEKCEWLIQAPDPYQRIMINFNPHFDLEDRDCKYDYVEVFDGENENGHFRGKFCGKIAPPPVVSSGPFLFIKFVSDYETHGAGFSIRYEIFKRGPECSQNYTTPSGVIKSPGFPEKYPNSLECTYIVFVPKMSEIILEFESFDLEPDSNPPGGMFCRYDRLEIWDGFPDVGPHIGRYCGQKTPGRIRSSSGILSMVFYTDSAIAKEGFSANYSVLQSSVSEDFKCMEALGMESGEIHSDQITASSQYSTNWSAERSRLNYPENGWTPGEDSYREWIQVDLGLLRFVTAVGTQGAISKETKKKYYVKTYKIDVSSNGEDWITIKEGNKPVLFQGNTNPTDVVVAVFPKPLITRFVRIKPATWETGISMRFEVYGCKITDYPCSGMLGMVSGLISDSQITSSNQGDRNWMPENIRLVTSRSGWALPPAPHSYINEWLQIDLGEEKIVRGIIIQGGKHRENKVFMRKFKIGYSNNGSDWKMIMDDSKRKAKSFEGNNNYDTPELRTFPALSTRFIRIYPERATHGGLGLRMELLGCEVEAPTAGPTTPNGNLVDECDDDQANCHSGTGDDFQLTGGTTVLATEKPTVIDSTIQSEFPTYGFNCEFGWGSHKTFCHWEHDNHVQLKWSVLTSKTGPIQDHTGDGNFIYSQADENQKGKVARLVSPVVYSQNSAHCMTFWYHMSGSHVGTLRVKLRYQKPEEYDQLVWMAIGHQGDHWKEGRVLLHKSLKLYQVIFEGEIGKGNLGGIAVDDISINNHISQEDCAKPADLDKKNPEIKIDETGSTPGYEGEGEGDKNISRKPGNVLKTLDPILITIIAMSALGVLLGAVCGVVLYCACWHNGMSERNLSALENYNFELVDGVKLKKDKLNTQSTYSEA

C[C@@H](O)[C@H](N)C(=O)N[C@@H](CCCCN)C(=O)N1CCC[C@H]1C(=O)N[C@@H](CCCNC(=N)N)C(=O)O [tuftsin, L-Threonyl-L-Lysyl-L-Prolyl-L-Arginine] (H-TKPR-OH)
Kd (recombinant human ACE2): 460 µM | Kd (recombinant human NRP1): 10.7 µM | toxicity [1]: low toxicity

Source: article PMC8984176, “Tuftsin: A Natural Molecule Against SARS-CoV-2 Infection” (Frontiers in Molecular Biosciences, 2022)
